Experimental data published in US9441012B2, “Fluorinated epoxyketone-based compounds and uses thereof as proteasome inhibitors” (FLUORINOV PHARMA INC., priority 2012, dated 2016).

Key:
Experiment in all cases: NCI 60 human tumor cell line screen (SRB)
Type in all cases: cell-based
786-0 = 786-0 (Renal Cancer); 48 h
Description: (§1) Representative compounds of Formula I were screened using the National Cancer Institute (NCI) screening panel, which consists of a panel of 60 different human tumor cell lines, representing leukemia [CCRF-CEM, HL-60 (TB), K-562, MOLT-4, SR], melanoma [LOX IMVI, MALME-3M, M14, SMDA-MB-435, SK-MEL-2, SK-MEL-28, SK-MEL-5, UACC-257 and UACC-62] and cancers of the lung [A549/ATCC, EKVX, HOP-62, HOP-93, NCI-H226, NCI-H23, NCI-H322M, NCI-H460], colon [COLO 205, HCT-116, HCT-15, HT29, KM12, SW-620], brain [SF-268, SF-295, SF-539, SNB-19, SNB-75, U251], ovary [IGROV1, OVCAR-3, OVCAR-4, OVCAR-5, OVCAR-8, NCI/ADR-RES, SK-OV-3], breast [MCF7, MDA-MB-231, BT-549, T-47D, MDA-MB-468], prostate [PC-3, DU-145], and renal[786-0, A498, ACHN, CAKI-1, RXF-393, SN12C, TK-10, UO-31] cancers.
(§2) After 24 h, two plates of each cell line are fixed in situ with TCA, to represent a measurement of the cell population for each cell line at the time of drug addition (Tz). Experimental drugs are solubilised in dimethyl sulfoxide at 400-fold the desired final maximum test concentration and stored frozen prior to use. At the time of drug addition, an aliquot of frozen concentrate is thawed and diluted to twice the desired final maximum test concentration with complete medium containing 50 μg/ml gentamicin. Additional four, 10-fold or ½ log serial dilutions are made to provide a total of five drug concentrations plus control. Aliquots of 100 μl of these different drug dilutions are added to the appropriate microtiter wells already containing 100 μl of medium, resulting in the required final drug concentrations.
(§3) Following drug addition, the plates are incubated for an additional 48 h at 37° C., 5% CO2, 95% air, and 100% relative humidity. For adherent cells, the assay is terminated by the addition of cold TCA (trichloroacetic acid). Cells are fixed in situ by the gentle addition of 50 μl of cold 50% (w/v) TCA (final concentration, 10% TCA) and incubated for 60 minutes at 4° C. The supernatant is discarded, and the plates are washed five times with tap water and air dried. Sulforhodamine B (SRB) solution (100 μl) at 0.4% (w/v) in 1% acetic acid is added to each well, and plates are incubated for 10 minutes at room temperature. After staining, unbound dye is removed by washing five times with 1% acetic acid and the plates are air dried. Bound stain is subsequently solubilised with 10 mM trizma base, and the absorbance is read on an automated plate reader at a wavelength of 515 nm. For suspension cells, the methodology is the same except that the assay is terminated by fixing settled cells at the bottom of the wells by gently adding 50 μl of 80% TCA (final concentration, 16% TCA). Using the seven absorbance measurements [time zero, (Tz), control growth, (C), and test growth in the presence of drug at the five concentration levels (Ti)], the percentage growth is calculated at each of the drug concentration levels. Percentage growth inhibition is calculated as: [(Ti−Tz)/(C−Tz)]×100 for concentrations in which Ti>/=Tz and [(Ti−Tz)/Tz]×100 for concentrations in which Ti<Tz.
(§4) Three dose response parameters are calculated for each experimental agent. Growth inhibition of 50% (GI50) is calculated from [(Ti−Tz)/(C−Tz)]100=50, which is the drug concentration resulting in a 50% reduction in the net protein increase (as measured by SRB staining) in control cells during the drug incubation. The drug concentration resulting in total growth inhibition (TGI) is calculated from Ti=Tz. The LC50 (concentration of drug resulting in a 50% reduction in the measured protein at the end of the drug treatment as compared to that at the beginning) indicating a net loss of cells following treatment is calculated from [(Ti−Tz)/Tz]×100=−50. Values are calculated for each of these three parameters if the level of activity is reached. However, if the effect is not reached or is exceeded, the value for that parameter is expressed as greater or less than the maximum or minimum concentration tested.

A498 = A498 (Renal Cancer); 48 h
Description: as §1, §2, §3, §4

A549/ATCC = A549/ATCC (Non-Small Cell Lung Cancer); 48 h
Description: as §1, §2, §3, §4

COLO 205 = COLO 205 (Colon Cancer); 48 h
Description: as §1, §2, §3, §4

HCC-2998 = HCC-2998 (Colon Cancer); 48 h
Description: as §1, §2, §3, §4

MCF7 = MCF7 (Breast Cancer); 48 h
Description: as §1, §2, §3, §4

MDA-MB-435 = MDA-MB-435 (Melanoma); 48 h
Description: as §1, §2, §3, §4

NCI-H322M = NCI-H322M (Non-Small Cell Lung Cancer); 48 h
Description: as §1, §2, §3, §4

NCI/ADR-RES = NCI/ADR-RES (Ovarian Cancer); 48 h
Description: as §1, §2, §3, §4

RPMI-8226 = RPMI-8226 (Leukemia); 48 h
Description: as §1, §2, §3, §4

SW-620 = SW-620 (Colon Cancer); 48 h
Description: as §1, §2, §3, §4

SR = SR (Leukemia); 48 h

## CC(C)C[C@H](NC(=O)[C@H](Cc1ccccc1)NC(=O)[C@H](COC(F)F)NC(=O)CN1CCOCC1)C(=O)[C@@]1(C)CO1 [Example 25, (2S)-2-[[(2S)-3-(difluoromethoxy)-2-[(2-morpholinoacetyl)amino]propanoyl]amino]-N-[(1S)-3-methyl-1-[(2R)-2-methyloxirane-2-carbonyl]butyl]-3-phenyl-propanamide]
786-0
  Log10GI50: −7.20
  Log10LC50: −5.44
  Log10TGI50: −6.49
A498
  Log10GI50: −7.61
  Log10LC50: −6.34
  Log10TGI50: −7.03
A549/ATCC
  Log10GI50: −7.41
  Log10LC50: >−4.00
  Log10TGI50: −6.13
COLO 205
  Log10GI50: −7.39
  Log10LC50: −6.21
  Log10TGI50: −6.76
HCC-2998
  Log10GI50: −7.74
  Log10LC50: −7.20
  Log10TGI50: −7.47
MCF7
  Log10GI50: −7.53
  Log10LC50: >−4.00
  Log10TGI50: −4.89
MDA-MB-435
  Log10GI50: −7.75
  Log10LC50: −7.10
  Log10TGI50: −7.42
NCI-H322M
  Log10GI50: −7.10
  Log10LC50: >−4.00
  Log10TGI50: −6.33
NCI/ADR-RES
  Log10GI50: −5.82
  Log10LC50: >−4.00
  Log10TGI50: >−4.00
RPMI-8226
  Log10GI50: −7.52
  Log10LC50: >−4.00
  Log10TGI50: −7.04
SW-620
  Log10GI50: −7.41
  Log10LC50: >−4.00
  Log10TGI50: −5.93
SR
  Log10GI50: −7.71
  Log10LC50: >−4.00
  Log10TGI50: >−4.00
